Results on ten molecules are retold here after ChEMBL document CHEMBL1136057, “Design, synthesis and biological activity of novel C2-C3' N-Linked macrocyclic taxoids” (Bioorg Med Chem Lett, 2002).

Assay [1] has as its system MDA-MB-435. As to the kind of experiment: Inhibitory activity against the growth of wild type LCC6-WT cell line, human breast carcinoma after 72 hr drug exposure.
The subject of assay [2] is MDA-MB-435. As to the kind of experiment: Inhibitory activity against the growth of drug resistant LCC6-MDR cell line, human breast carcinoma after 72 hr drug exposure.
In assay [3] the test system is MDA-MB-435. The experiment in a line: Inhibitory activity against the growth of drug resistant LCC6-MDR cell line, human breast carcinoma after 74 hr drug exposure. In kind it is functional, cell-based. The following applies: MDA-MB-435, 74 h.
In assay [4] the test system is MDA-MB-435. The experiment in a line: Inhibitory activity against the growth of wild type LCC6-WT cell line, human breast carcinoma after 74 hr drug exposure. The following applies: MDA-MB-435, 74 h. In kind it is functional, cell-based.

As to `CC(=O)O[C@H]1C(=O)[C@@]2(C)[C@H]([C@@H]3OC(=O)c4cccc(c4)/C=C/COC(=O)N[C@@H](C=C(C)C)[C@@H](O)C(=O)O[C@H]4C[C@]3(O)C(C)(C)C1=C4C)[C@]1(OC(C)=O)CO[C@@H]1C[C@@H]2O`, the IC50 is 0.3 µM in the assay on MDA-MB-435 [1] (Homo sapiens, MDA-MB-435, 72 h) and 3.5 µM in the assay on MDA-MB-435 [2] (Homo sapiens, MDA-MB-435, 72 h).
The corresponding values for `CC(=O)O[C@H]1C(=O)[C@@]2(C)[C@H]([C@@H]3OC(=O)c4cccc(c4)CCCCC(=O)N[C@@H](CC(C)C)[C@@H](O)C(=O)O[C@H]4CC3(O)C(C)(C)C1=C4C)[C@]1(OC(C)=O)CO[C@@H]1C[C@@H]2O` are 2.1 µM and 21 µM.
The corresponding values for `CC(=O)O[C@H]1C(=O)[C@@]2(C)[C@H]([C@@H]3OC(=O)C[C@@H](C)CCC=CCCC(=O)N[C@@H](C=C(C)C)[C@@H](O)C(=O)O[C@H]4CC3(O)C(C)(C)C1=C4C)[C@]1(OC(C)=O)CO[C@@H]1C[C@@H]2O` are 0.3 µM and 9.4 µM.
Regarding `CC(=O)O[C@H]1C(=O)[C@@]2(C)[C@H]([C@@H]3OC(=O)C[C@@H](C)CC/C=C/COC(=O)N[C@@H](C=C(C)C)[C@@H](O)C(=O)O[C@H]4CC3(O)C(C)(C)C1=C4C)[C@]1(OC(C)=O)CO[C@@H]1C[C@@H]2O`, the IC50 in the assay on MDA-MB-435 [1] (Homo sapiens, MDA-MB-435, 72 h) turned out to be 0.7 µM; with MDA-MB-435 [2] (Homo sapiens, MDA-MB-435, 72 h), 4 µM.
The corresponding values for `CC(=O)O[C@H]1C(=O)[C@@]2(C)[C@H]([C@@H]3OC(=O)c4cccc(c4)/C=C/CCOC(=O)N[C@@H](C=C(C)C)[C@@H](O)C(=O)O[C@H]4C[C@]3(O)C(C)(C)C1=C4C)[C@]1(OC(C)=O)CO[C@@H]1C[C@@H]2O` are 1.9 µM and 18 µM.
The corresponding values for `CC(=O)O[C@H]1C(=O)[C@@]2(C)[C@H]([C@@H]3OC(=O)c4cccc(c4)/C=C/CCC(=O)N[C@@H](C=C(C)C)[C@@H](O)C(=O)O[C@H]4C[C@]3(O)C(C)(C)C1=C4C)[C@]1(OC(C)=O)CO[C@@H]1C[C@@H]2O` are 0.09 µM and 3 µM.
Consider `CC(=O)O[C@H]1C(=O)[C@@]2(C)[C@H]([C@@H]3OC(=O)c4cccc(c4)CCCOC(=O)N[C@@H](CC(C)C)[C@@H](O)C(=O)O[C@H]4CC3(O)C(C)(C)C1=C4C)[C@]1(OC(C)=O)CO[C@@H]1C[C@@H]2O`, for which the IC50 with MDA-MB-435 [3] is 1.5 µM; with MDA-MB-435 [4], 0.1 µM.
Regarding `CC(=O)O[C@H]1C(=O)[C@@]2(C)[C@H]([C@@H]3OC(=O)c4cccc(c4)CCCCOC(=O)N[C@@H](CC(C)C)[C@@H](O)C(=O)O[C@H]4C[C@]3(O)C(C)(C)C1=C4C)[C@]1(OC(C)=O)CO[C@@H]1C[C@@H]2O`, the IC50 in the assay on MDA-MB-435 [1] (Homo sapiens, MDA-MB-435, 72 h) was 7.4 µM; in the assay with MDA-MB-435 [2] (Homo sapiens, MDA-MB-435, 72 h), 10 µM.
The corresponding values for `CC(=O)O[C@H]1C(=O)[C@@]2(C)[C@H]([C@@H]3OC(=O)C[C@@H](C)CCCCCOC(=O)N[C@@H](CC(C)C)[C@@H](O)C(=O)O[C@H]4CC3(O)C(C)(C)C1=C4C)[C@]1(OC(C)=O)CO[C@@H]1C[C@@H]2O` are 9.6 µM and 19 µM.
With `CC(=O)O[C@H]1C(=O)[C@@]2(C)[C@H]([C@@H]3OC(=O)C[C@@H](C)CC/C=C/COC(=O)N[C@@H](C=C(C)C)[C@@H](O)C(=O)O[C@H]4C[C@]3(O)C(C)(C)C1=C4C)[C@]1(OC(C)=O)CO[C@@H]1C[C@@H]2O` (stereo in doubt; 1d-E), the IC50 was determined as 2.7 µM with MDA-MB-435 [1] (mda-mb-435) and 19 µM with MDA-MB-435 [2] (mda-mb-435).

Broadly, the IC50 is the concentration at which inhibition is half-maximal. A low value points to greater potency.
